molecular target: human activated kallikrein enzyme (plasma kallikrein) (Homo sapiens (Human), UniProt P03952); assay: Inhibition of human activated plasma kallikrein, fluorogenic peptide substrate assay, 500 pM enzyme format; assay type: biochemical; settings: 500 pM activated kallikrein enzyme, 300 uM Pro-Phe-Arg-7-amido-4-methylcoumarin substrate, 30 min preincubation, 10 min at RT; read-out: Primary Dose Response Assay: Average EC50
Description: Example compounds were evaluated for inhibition of the human activated kallikrein enzyme in two formats of an assay employing a fluorogenic peptide substrate. In one assay format, the concentrations of reagents were as follows: 20 mM Tris pH 7.5, 1 mM EDTA, 150 mM sodium chloride, 0.1% PEG-400, 0.1% Triton X-100, 500 pM activated kallikrein enzyme, 300 uM Pro-Phe-Arg-7-amido-4-methylcoumarin substrate. Prior to reaction initiation with substrate, enzyme and inhibitors were preincubated for 30 min at RT. After initiation with substrate, reactions were incubated for 10 min at RT and fluorescence emission at 460 nm from 380 nm excitation measured with a microplate reader. In another assay format, the concentrations of reagents were as follows: 20 mM Tris pH 7.5, 1 mM EDTA, 150 mM sodium chloride, 0.1% PEG-400, 0.1% Triton X-100, 5 pM activated kallikrein enzyme, 300 uM Pro-Phe-Arg-7-amido-4-methylcoumarin substrate. Prior to reaction initiation with substrate, enzyme and inhibitors were preincubated for 30 min at RT. After initiation with substrate, reactions were incubated for 18 h at RT and fluorescence emission at 460 nm from 380 nm excitation measured with a microplate reader.

human activated kallikrein enzyme (plasma kallikrein), sequence (P03952 391-638): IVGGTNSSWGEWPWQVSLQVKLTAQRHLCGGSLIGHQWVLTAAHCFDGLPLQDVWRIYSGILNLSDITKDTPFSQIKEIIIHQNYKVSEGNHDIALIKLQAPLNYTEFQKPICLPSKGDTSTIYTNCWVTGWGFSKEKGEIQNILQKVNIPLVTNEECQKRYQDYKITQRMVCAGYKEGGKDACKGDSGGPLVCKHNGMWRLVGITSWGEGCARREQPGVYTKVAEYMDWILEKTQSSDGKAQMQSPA
human activated kallikrein enzyme (plasma kallikrein), sequence (P03952 20-390 partner): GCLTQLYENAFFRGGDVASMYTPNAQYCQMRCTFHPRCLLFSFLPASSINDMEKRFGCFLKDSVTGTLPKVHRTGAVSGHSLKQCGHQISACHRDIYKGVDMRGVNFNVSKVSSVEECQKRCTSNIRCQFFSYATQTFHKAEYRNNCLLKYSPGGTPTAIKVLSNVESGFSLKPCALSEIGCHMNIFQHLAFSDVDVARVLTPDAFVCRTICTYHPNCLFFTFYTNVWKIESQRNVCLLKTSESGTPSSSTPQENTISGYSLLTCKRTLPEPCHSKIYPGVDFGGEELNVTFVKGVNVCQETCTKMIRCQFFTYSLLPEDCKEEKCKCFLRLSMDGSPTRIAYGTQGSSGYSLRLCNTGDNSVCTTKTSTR

Row | SMILES | EC50 [nM]
1 | N#Cc1cc(C2CC2)cn2cc(Cc3nnc(C(=O)NCc4ncn5ccc(Br)c(F)c45)o3)nc12 [Example I-154, N-((7-bromo-8-fluoroimidazo[1,5-a]pyridin-1-yl)methyl)-5-((8-cyano-6-cyclopropylimidazo[1,2-a]pyridin-2-yl)methyl)-1,3,4-oxadiazole-2-carboxamide] | < 1
2 | O=C(NCc1ncn2ccc(Cl)cc12)c1cnn(Cc2cn3c(C4CC4)cccc3n2)c1 [Example I-22, N-((7-chloroimidazo[1,5-a]pyridin-1-yl)methyl)-1-((5-cyclopropylimidazo[1,2-a]pyridin-2-yl)methyl)-1H-pyrazole-4-carboxamide] | 100 to 2000
3 | O=C(NCc1ncn2ccc(Cl)cc12)c1cnn(Cc2cn3cc(C4CC4)cc(C4(O)COC4)c3n2)c1 [Example I-122, N-((7-chloroimidazo[1,5-a]pyridin-1-yl)methyl)-1-((6-cyclopropyl-8-(3-hydroxyoxetan-3-yl)imidazo[1,2-a]pyridin-2-yl)methyl)-1H-pyrazole-4-carboxamide] | < 1
4 | COC(=O)c1c(Cn2cc(C(=O)NCc3ncn4ccc(Cl)c(F)c34)nn2)[nH]c2cc(C3CC3)ccc12 [Example I-195, methyl 2-((4-(((7-chloro-8-fluoroimidazo[1,5-a]pyridin-1-yl)methyl)carbamoyl)-1H-1,2,3-triazol-1-yl)methyl)-6-cyclopropyl-1H-indole-3-carboxylate] | 100 to 2000
5 | O=C(NCc1ncn2ccc(Br)cc12)c1cnn(Cc2cn3cc(C(F)(F)F)ccc3n2)c1 [Example I-19, N-((7-bromoimidazo[1,5-a]pyridin-1-yl)methyl)-1-((6-(trifluoromethyl)imidazo[1,2-a]pyridin-2-yl)methyl)-1H-pyrazole-4-carboxamide] | 1 to 10
6 | O=C(NCc1ncn2ccc(Cl)c(F)c12)c1cn(Cc2cn3cc(C4CC4)cc(C4COC4)c3n2)nn1 [Example I-169, N-((7-chloro-8-fluoroimidazo[1,5-a]pyridin-1-yl)methyl)-1-((6-cyclopropyl-8-(oxetan-3-yl)imidazo[1,2-a]pyridin-2-yl)methyl)-1H-1,2,3-triazole-4-carboxamide] | < 1
7 | N#Cc1cc(C2CC2)cn2cc(Cn3cc(C(=O)NCc4ncn5ccc(Cl)cc45)cn3)nc12 [Example I-92, N-((7-chloroimidazo[1,5-a]pyridin-1-yl)methyl)-1-((8-cyano-6-cyclopropylimidazo[1,2-a]pyridin-2-yl)methyl)-1H-pyrazole-4-carboxamide] | < 1
8 | O=C(NCc1ncn2ccc(Cl)c(F)c12)c1cn(Cc2cn3cc(C4CC4)cc(C4CCOC4=O)c3n2)nn1 (centres unmarked) [Example I-199, N-((7-chloro-8-fluoroimidazo[1,5-a]pyridin-1-yl)methyl)-1-((6-cyclopropyl-8-(2-oxotetrahydrofuran-3-yl)imidazo[1,2-a]pyridin-2-yl)methyl)-1H-1,2,3-triazole-4-carboxamide] | < 1

Now from value to compound:

Row | EC50 [nM] | SMILES
9 | < 1 | CCOC(=O)C=Cc1cc(C2CC2)cn2cc(Cn3cc(C(=O)NCc4ncn5ccc(Cl)cc45)cn3)nc12 [Example I-100a, ethyl 3-(2-((4-(((7-chloroimidazo[1,5-a]pyridin-1-yl)methyl)carbamoyl)-1H-pyrazol-1-yl)methyl)-6-cyclopropylimidazo[1,2-a]pyridin-8-yl)acrylate]
10 | 1 to 10 | C/C=C\c1ccc2nc(Cn3cc(C(=O)NCc4ncn5ccc(Cl)cc45)cn3)cn2c1 [Example I-47, (Z)—N-((7-chloroimidazo[1,5-a]pyridin-1-yl)methyl)-1-((6-(prop-1-en-1-yl)imidazo[1,2-a]pyridin-2-yl)methyl)-1H-pyrazole-4-carboxamide]
11 | < 1 | CCOC(=O)CCc1cc(C2CC2)cn2cc(Cn3cc(C(=O)NCc4ncn5ccc(Cl)cc45)cn3)nc12 [Example I-100b, ethyl 3-(2-((4-(((7-chloroimidazo[1,5-a]pyridin-1-yl)methyl)carbamoyl)-1H-pyrazol-1-yl)methyl)-6-cyclopropylimidazo[1,2-a]pyridin-8-yl)propanoate]

From patent US10730874B2 (Shire Human Genetic Therapies, Inc., priority 2018, dated 2020)
